Patent publication US10385045B2, “Compound having EP2 agonist activity” (ONO PHARMACEUTICAL CO., LTD., priority 2015, dated 2019)

Tested on: not listed separately
Test: Intraocular pressure lowering activity after ocular instillation in rabbit
Assay type: in vivo
Conditions: male rabbit (NZW), ocular instillation 30 μL, administration concentration 10 μg/mL, 8 hours after the administration
Protocol: As can be easily understood by a person skilled in the art, in an in vivo test, since regarding all test compounds, carboxylic acid which is an active body has poor corneal permeability, pharmacological action of the active body was evaluated by ocular instillation administration of a compound which had been converted into an ester such as an ethyl ester or an isopropyl ester, or an alcohol.
A test compound-containing solution (30 μL) which had been adjusted to each of various concentrations was ocular instillation-administered to the left or right eye of a male rabbit (NZW (Healthy)) under consciousness, and an intraocular pressure was measured before the administration and 8 hours after the administration. An intraocular pressure before the administration was measured on a day before the administration. In measurement of an intraocular pressure, the rabbit was fixed on a wood-made restrainer, and the rabbit was anesthetized by the ocular instillation-administration of an ocular surface anesthetic agent (Benoxil eye drops 0.4%, Santen Pharmaceutical Co., Ltd.). After fitting a blepharostat (Handaya Co., Ltd.) to the rabbit, intraocular pressures of both eyes were measured (6 cases per group) with a pneumatic applanation flat tonometer (Model 30 Classic, REICHERT). A difference between an intraocular pressure value before the administration of a test compound and an intraocular pressure value after the administration of the test compound was calculated as an intraocular pressure lowering rate in accordance with the equation shown below, and the sustainability of intraocular eye lowering action was evaluated.
The administered concentrations were selected on the basis of the EP2 agonist activities measured by the above-mentioned method.

Structure (SMILES)	Intraocular pressure lowering rate (%)
CC(C)OC(=O)c1csc([C@H]2CC[C@@H]3[C@@H](/C=C/COc4ccccc4C(F)(F)F)[C@H](O)C[C@@H]3O2)n1 [Example 4-3, Isopropyl 2-[(2R,4aR,5R,6R,7aS)-6-hydroxy-5-{(1E)-3-[2-(trifluoromethyl)phenoxy]-1-propen-1-yl}octahydrocyclopenta[b]pyran-2-yl]-1,3-thiazole-4-carboxylate]	12.1%
COc1ccc(OCCC/C=C/[C@@H]2[C@H]3CC[C@H](c4nc(C(=O)OC(C)C)cs4)O[C@H]3C[C@H]2O)cc1 [Example 4, Isopropyl 2-{(2R,4aR,5R,6R,7aS)-6-hydroxy-5-[(1E)-5-(4-methoxyphenoxy)-1-penten-1-yl]octahydrocyclopenta[b]pyran-2-yl}-1,3-thiazole-4-carboxylate]	19.1%
Cc1cc(OCC[C@@H]2[C@H]3CC[C@H](c4nc(C(=O)OC(C)C)cs4)O[C@H]3C[C@H]2O)ccc1[N+](=O)[O-] [Example 14, Isopropyl 2-{(2R,4aR,5R,6R,7aS)-6-hydroxy-5-[2-(3-methyl-4-nitrophenoxy)ethyl]octahydrocyclopenta[b]pyran-2-yl}-1,3-thiazole-4-carboxylate]	23.6%

Target: T1, human EP2 receptor (Homo sapiens, UniProt P43116)
T1 construct: expressed in transfected cells; host or cells: CHO cells (EP2-CHO)
T1 sequence (P43116 whole entry): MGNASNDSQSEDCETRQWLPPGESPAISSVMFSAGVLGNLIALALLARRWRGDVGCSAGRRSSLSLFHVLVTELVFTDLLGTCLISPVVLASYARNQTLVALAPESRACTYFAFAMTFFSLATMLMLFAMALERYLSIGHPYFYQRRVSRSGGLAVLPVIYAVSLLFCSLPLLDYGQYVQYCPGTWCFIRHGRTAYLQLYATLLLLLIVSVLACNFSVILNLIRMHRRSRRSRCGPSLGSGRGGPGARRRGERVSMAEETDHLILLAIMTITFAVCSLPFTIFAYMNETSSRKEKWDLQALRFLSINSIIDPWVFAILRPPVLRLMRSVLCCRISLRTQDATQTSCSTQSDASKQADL
Test: Measurement of EP2 agonist activity (cAMP concentration) in EP2-CHO cells
Assay type: cell-based
Conditions: EP2-CHO cells, cAMP production, 30 minutes at room temperature; read-out: EC50 (agonist activity on human EP2 receptor)
Protocol: (1) Measurement of Agonist Activity on Various Prostanoid Receptors
Using Chem1 cells or CHO cells in which various prostanoid receptors were forcibly expressed, respectively, agonist activities of test compounds on various prostanoid receptors was determined employing, as a measure, an intracellular cyclic AMP (hereinbelow, abbreviated as “cAMP”) production amount or an intracellular calcium concentration.
Each of the test compound and a control substance (PGE2 and PGF2α) was dissolved in dimethyl sulfoxide (DMSO) to prepare a 10 mmol/L solution. The 10 mmol/L solution thus prepared was thawed upon use, was then serially diluted with DMSO, and was then diluted with a buffered solution for measurement or a buffered solution for measurement 2, and then the resulting solution was subjected to an experiment.
Cells, in which various prostanoid receptors were respectively forcibly expressed, were subjected to static culture at 37° C. in the presence of 5% CO2 using a DMEM medium (Sigma) (for culturing FP-Chem1 cells) containing inactivated (56° C., 30 minutes) 9.8 vol % nondialysed-FBS (Life Technologies), 1 vol % Non Essential Amino Acids (Life Technologies), 10 mmol/L HEPES Buffered solution (Life Technologies), 0.5 vol % GENETICIN (Life Technologies) and 1% penicillin-streptomycin (Life Technologies) or an α-MEM medium (Sigma) (for culturing EP2-CHO cells) containing inactivated (56° C., 30 minutes) 9.8 vol % dialysed-FBS (Life Technologies) and penicillin-streptomycin-glutamine (Life Technologies). Subculturing was carried out in the following manner.
The medium was removed from a culture, and the culture was washed with Ca^2+-free and Mg^2+-free phosphate-buffered physiological saline one time. A proper amount of trypsin-EDTA (Life Technologies) was added to the washed product, and then the resultant product was incubated at 37° C. The cells were detached, and then a medium in a volume that is 10-fold the volume of trypsin-EDTA was added thereto to terminate the enzymatic reaction. The cells were collected in a centrifuge tube and then centrifuged at room temperature at 120 g for 3 minutes, and the supernatant was discarded therefrom. The cells were suspended in a proper amount of the medium and seeded in a culture flask.
On the day of measurement, a medium was removed and EP2-CHO cells were washed one time with a phosphate-buffered physiological saline containing 2 mmol/L EDTA and not containing Ca^2+ and Mg^2+. A proper amount of the phosphate-buffered physiological saline containing 2 mmol/L EDTA and not containing Ca^2+ and Mg^2+ was added to the cells, and this was incubated at 37° C. in the presence of 5% CO2. Subsequently, the cells were detached, then collected in a centrifuge tube and then centrifuged at room temperature at 550 g for 3 minutes, and the supernatant was removed therefrom. The cells were suspended in a proper amount of a buffered solution for measurement 1 (a MEM medium (Invitrogen) containing 1.0 w/v % of bovine serum albumin (Sigma) and 2 μmol/L of diclofenac (Sigma)), and the suspension was centrifuged at room temperature at 200 g for 3 minutes, and the supernatant was removed. The cells were suspended in a buffered solution for measurement 2 (MEM medium (Invitrogen) containing 1.0 w/v % of bovine serum albumin (Sigma), 2 μmol/L of diclofenac (Sigma) and 1 mmol/L of 3-isobutyl-1-methylxanthine), and each 25 μL of the suspension was dispensed into a 96-well ½ area plate so that the number of cells per well became […]. The buffered solution for measurement 2 (25 μL) containing a compound at each of various concentrations was added to each well to carry out a reaction at room temperature for 30 minutes. Measurement of a cAMP concentration was carried out using cAMP HTRF HiRange kit (CIS bio International). In accordance with the two-step protocol of the kit manual, each 25 μL of cAMP-D2 and Cryptase each diluted with a lysis buffer were added. […]

EC50	Structure (SMILES)
0.4 nM	CCCCCC(F)(F)/C=C/[C@@H]1[C@H]2CC[C@H](c3nc(C(=O)O)cs3)O[C@H]2C[C@H]1O [Example 8, 2-{(2R,4aR,5R,6R,7aS)-5-[(1E)-3,3-Difluoro-1-octen-1-yl]-6-hydroxyoctahydrocyclopenta[b]pyran-2-yl}-1,3-thiazole-4-carboxylic acid]
0.29 nM	N#Cc1ccc(CCC(O)/C=C/[C@@H]2[C@H]3CC[C@H](c4nc(C(=O)O)cs4)O[C@H]3C[C@H]2O)cc1 (stereo partly drawn) [Example 10, 2-{(2R,4aR,5R,6R,7aS)-5-[(1E)-5-(4-Cyanophenyl)-3-hydroxy-1-penten-1-yl]-6-hydroxyoctahydrocyclopenta[b]pyran-2-yl}-1,3-thiazole-4-carboxylic acid]
3.9 nM	O=C(O)c1csc([C@H]2CC[C@@H]3[C@@H](/C=C/CCOc4ccccc4)[C@H](O)C[C@@H]3O2)n1 [Example 2-2, 2-{(2R,4aR,5R,6R,7aS)-6-Hydroxy-5-[(1E)-4-phenoxy-1-buten-1-yl]octahydrocyclopenta[b]pyran-2-yl}-1,3-thiazole-4-carboxylic acid]
1.3 nM	O=C(O)c1csc([C@H]2CC[C@@H]3[C@@H](/C=C/COc4ccccc4C(F)(F)F)[C@H](O)C[C@@H]3O2)n1 [Example 2-16, 2-[(2R,4aR,5R,6R,7aS)-6-Hydroxy-5-{(1E)-3-[2-(trifluoromethyl)phenoxy]-1-propen-1-yl}octahydrocyclopenta[b]pyran-2-yl]-1,3-thiazole-4-carboxylic acid]
0.1 nM	CCC1([C@@H](O)C/C=C/[C@@H]2[C@H]3CC[C@H](c4nc(C(=O)O)cs4)O[C@H]3C[C@H]2O)CCC1 [Example 11-2, 2-{(2R,4aR,5R,6R,7aS)-5-[(1E,4S)-4-(1-Ethylcyclobutyl)-4-hydroxy-1-buten-1-yl]-6-hydroxyoctahydrocyclopenta[b]pyran-2-yl}-1,3-thiazole-4-carboxylic acid]
5.7 nM	Cc1cc(OCC[C@@H]2[C@H]3CC[C@H](c4nc(C(=O)O)cs4)O[C@H]3C[C@H]2O)ccc1[N+](=O)[O-] [Example 13-20, 2-{(2R,4aR,5R,6R,7aS)-6-Hydroxy-5-[2-(3-methyl-4-nitrophenoxy)ethyl]octahydrocyclopenta[b]pyran-2-yl}-1,3-thiazole-4-carboxylic acid]
1.8 nM	COc1ccc(OCCC/C=C/[C@@H]2[C@H]3CC[C@H](c4nc(C(=O)O)cs4)O[C@H]3C[C@H]2O)cc1 [Example 2-1, 2-{(2R,4aR,5R,6R,7aS)-6-Hydroxy-5-[(1E)-5-(4-methoxyphenoxy)-1-penten-1-yl]octahydrocyclopenta[b]pyran-2-yl}-1,3-thiazole-4-carboxylic acid]
14 nM	O=C(O)c1csc([C@H]2CC[C@@H]3[C@@H](/C=C/CCCOc4ccccc4)[C@H](O)C[C@@H]3O2)n1 [Example 2-4, 2-{(2R,4aR,5R,6R,7aS)-6-Hydroxy-5-[(1E)-5-phenoxy-1-penten-1-yl]octahydrocyclopenta[b]pyran-2-yl}-1,3-thiazole-4-carboxylic acid]
5.8 nM	Cc1ccc(OC/C=C/[C@@H]2[C@H]3CC[C@H](c4nc(C(=O)O)cs4)O[C@H]3C[C@H]2O)cc1 [Example 2-9, 2-{(2R,4aR,5R,6R,7aS)-6-Hydroxy-5-[(1E)-3-(4-methylphenoxy)-1-propen-1-yl]octahydrocyclopenta[b]pyran-2-yl}-1,3-thiazole-4-carboxylic acid]
0.11 nM	O=C(O)c1csc([C@H]2CC[C@@H]3[C@@H](/C=C/C(O)CCC4CCCC4)[C@H](O)C[C@@H]3O2)n1 (stereo partly drawn) [Example 10-3, 2-{(2R,4aR,5R,6R,7aS)-5-[(1E)-5-Cyclopentyl-3-hydroxy-1-penten-1-yl]-6-hydroxyoctahydrocyclopenta[b]pyran-2-yl}-1,3-thiazole-4-carboxylic acid]

Same assay, conditions: comparison compounds from prior art documents; read-out: EC50 (EP2 agonist activity) of prior art compounds with analogous structure

EC50	Structure (SMILES)
≥ 10000 nM	O=C(O)c1ccc(C2=CC[C@@H]3[C@@H](/C=C/[C@@H](O)C4CCCC4)[C@H](O)C[C@@H]3O2)o1 [reference compound]
≥ 10000 nM	CCCCC[C@H](O)/C=C/[C@@H]1[C@H]2CCC(c3ccccc3CC(=O)O)O[C@H]2C[C@H]1O (stereo partly shown) [reference compound]
≥ 10000 nM	O=C(O)c1csc([C@H]2CC[C@@H]3[C@@H](/C=C/[C@@H](O)COc4ccccc4)[C@H](O)C[C@@H]3OC2)n1 [reference compound]
